ChEMBL document CHEMBL1158345, “Fragment and knowledge-based design of selective GSK-3beta inhibitors using virtual screening models” (Eur J Med Chem, 2009)

Target: Glycogen synthase kinase-3 beta (Homo sapiens, UniProt P49841)
Sequence (P49841 whole entry): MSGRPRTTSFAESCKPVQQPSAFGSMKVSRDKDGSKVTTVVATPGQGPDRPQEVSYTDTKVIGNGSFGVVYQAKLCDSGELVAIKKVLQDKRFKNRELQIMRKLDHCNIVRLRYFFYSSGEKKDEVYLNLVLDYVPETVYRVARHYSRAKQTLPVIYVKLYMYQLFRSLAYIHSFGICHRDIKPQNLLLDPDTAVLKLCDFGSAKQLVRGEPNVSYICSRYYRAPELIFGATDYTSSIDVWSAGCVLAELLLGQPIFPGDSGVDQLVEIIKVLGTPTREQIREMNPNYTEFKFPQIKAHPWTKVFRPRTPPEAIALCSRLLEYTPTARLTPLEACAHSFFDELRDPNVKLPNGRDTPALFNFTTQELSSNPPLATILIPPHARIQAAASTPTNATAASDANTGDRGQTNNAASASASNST
Description: Inhibition of human GSK3-beta

| SMILES | Ki [nM] | IC50 [nM] |
| --- | --- | --- |
| O=[N+]([O-])c1ccc(NCCNc2ncc(-c3ncc[nH]3)c(-c3ccc(Cl)cc3Cl)n2)nc1 | 0.09 |  |
| Nc1nc(Nc2ccccc2)sc1C(=O)C1CC1 |  | 2400 |
| Cn1cc(-c2cc(-c3nc4ccccc4[nH]3)c(=O)[nH]n2)ccc1=O |  | 160 |
| Cn1cc(C2=C(c3cc(Cl)ccc3Cl)C(=O)NC2=O)c2ccccc21 |  | 7 |
| COc1cc(C2=C(c3cn(CCN4CCN(C)CC4)c4ccccc34)C(=O)NC2=O)c2occc2c1 |  | 0.14 |
| Cn1cc(C2=C(c3cn(CCCSC(=N)N)c4ccccc34)C(=O)NC2=O)c2ccccc21 [BISINDOLYLMALEIMIDE IX] |  | 2.8 |
